In series [1] the test system is formation de néovaisseaux. Nature of the series: Neovascularisation after irreversible venous occlusion by argon laser photocoagulation in the miniature pig. The following applies: voie orale, dose journalière de 100 mg, pendant 4 semaines; 6 porcs miniatures. The class given is in vivo, porc miniature. The text has this: Pournaras, […] Mbl. Augenheilk. 186 (1985) 471-476). Les expériences ont été partiquées chez le porc miniature. Une occlusion veineuse irréversible a été obtenue par photocoagulation au moyen du laser à Argon. L'angiographie fluorescéinique permet de visualiser 4 semaines après l'occlusion, dans les zones où les vaisseaux de suppléance sont insuffisants en nombre pour assurer la fonction de drainage, […]éovascularisation.

The test system of series [2] is cellules endothéliales humaines. Nature of the series: Proliferation of human endothelial cells cultured in hypoxia. The text has this:
(§1) • la néovascularisation est le résultat d'une prolifération anormale de cellules endothéliales en particulier dans un environnement hypoxique. • * Cette situation peut être reproduite in vitro en étudiant une telle prolifération sur une culture de cellules endothéliales humaines placées en hypoxie. […] Tout d'abord dans le modèle classique de néovascularisation de la cornée du lapin (M.A. Gimbrone Jr, R.S. Cotran, S.B. Leafman et A.J. Folkman, J. Natl Cancer Inst. 52).

In the next series the test system is métastases pulmonaires. Nature of the series: Pulmonary metastasis model in the mouse. In kind it is in vivo. The conditions noted are these: 25 et 12,5 mg par voie orale; souris.
Series [3] concerns néovascularisation de la cornée du lapin. Nature of the series: Rabbit cornea neovascularisation model. In kind it is in vivo. The conditions noted are these: administration in situ.
From the text: as §1

Series [4] concerns cellules musculaires lisses précapillaires. Nature of the series: Hamster cheek pouch microcirculation under pentobarbital anaesthesia. In kind it is in vivo. The conditions noted are these: 1-2 mg/100 g par voie intraveineuse; animal anesthésié au pentobarbital (contractions abolished).
For series [5], the system named is endothélium en culture sur sa matrice extracellulaire. Nature of the series: Penetration of cancer cells through cultured endothelium on its extracellular matrix. In kind it is cell-based. The following applies: 10⁻⁴ - 10⁻⁵ M; in vitro.
The test system of a further series is artérioles terminales. The series can be described thus: Skin window in the awake hamster: spontaneous microvascular vasomotion. The class given is in vivo. The conditions noted are these: 2 mg/100 g par voie intraveineuse; hamster éveillé; controls: une par minute. The text has this:
La fenêtre est éclairée par transmission, on observe le lit capillaire au microscope trioculaire. L'image est transformée en vidéosignal par une caméra. L'enregistrement du diamètre des microvaisseaux est réalisé en continu.
Le produit à étudier est administré par voie intra-veineuse.

For series [6], the system named is modèle d'ischémie périphérique chez le rat. Nature of the series: Peripheral ischaemia model: microspheres injected into the femoral artery. The class given is in vivo. The following applies: voie intra péritonéale 20 mg/kg. The text has this:
Dans un modèle d'ischémie périphérique chez le rat, l'injection de microsphères dans l'artère fémorale, provoque l'apparition d'un oedème de la patte ainsi qu'une baisse des capacités motrices de l'animal.

Take `CN(C)C(=N)NC(=N)N` [Metformine, N,N-diméthylimidodicarbonimidicdiamide]: the “apparition d'une néovascularisation” value in series [1] is recorded as “suppression complète de l'apparition d'une néovascularisation”. The “prolifération de cellules endothéliales humaines en hypoxie” value in series [2] (concentrations de l'ordre de 10⁻⁷ à 10⁻¹² M, hypoxie) was “inhibe fortement cette prolifération”. In series [2] (cultures de cellules endothéliales humaines), the “cytotoxicité sur ces cultures cellulaires” value was “ne présente pas de cytotoxicité”. Besides, in the series with métastases pulmonaires, the “baisse du nombre de métastases” value came out at 50%. In series [3], the “apparition des néovaisseaux” value was “inhibe l'apparition des néovaisseaux”. The “contractions et relaxations rythmiques des cellules musculaires lisses précapillaires” value in series [4] is given as “réapparition des contractions et relaxations rythmiques des cellules musculaires lisses précapillaires”. In addition, the “pénétration de cellules cancéreuses à travers l'endothélium” value in series [5] is given as “inhibe la pénétration de cellules cancéreuses à travers l'endothélium”. In addition, in the series with artérioles terminales, the “fréquence de contractions et dilatations des artérioles terminales” value came to 10 par minute. Besides, in series [6], the “motricité (capacités motrices de l'animal)” value is listed as “récupération totale de la motricité” and the “réduction de l'oedème de la patte” value is given as 60%.

The values are drawn from patent EP0283369B1, “Use of Metformin in the preparation of medicaments” (LIPHA, LYONNAISE INDUSTRIELLE PHARMACEUTIQUE, priority 1987, dated 1988).
